Results on 1 substance are retold here after PMC9818267, “Brain Natriuretic Peptide Protects Cardiomyocytes from Apoptosis and Stimulates Their Cell Cycle Re-Entry in Mouse Infarcted Hearts” (Cells, 2022).

Series [1] is described as follows: Survival of infarcted mice at 14 days. The class given is in vivo, mouse. The settings on record: 14 days after MI; BNP ip every 2 days; saline group 83.9%. As to the method:
To generate a permanent infarction, a ligation of the left anterior descending coronary artery (LAD) was performed in 6–8-week-old C57BL/6- or 8-week-old Myh6 MerCreMer mice, already injected with Tamoxifen 2 weeks before. Mice were anesthetized with ketamine/xylazine and acepromazine (65 mg/kg, 15 mg/kg, 2 mg/kg, respectively). Mice were intubated and ventilated during all the entire period of surgery. At the third intercostal space, the chest cavity was opened and at the left upper sterna border, the LAD coronary artery was ligated with a 7–0 nylon suture at about 1–2 mm from the atria. After surgery, Temgesic (Buprenorphine, 0.1 mg/kg) was injected subcutaneously as soon as the mice woken up and every 8–12 h for 2 days. Adult mice were sacrificed by lethal injection of pentobarbital (150 mg/kg intraperitoneally) 2 weeks after the surgery. The breathing arrest was controlled and cervical dislocation was performed.
(§1) BNP was injected into infarcted adults, and unmanipulated neonatal and adult mice. Directly after surgery, NaCl (saline) or BNP (1.3 µg/20 g in 20 µL) was injected into the left ventricle cavity. At 24 h after MI, mice were intraperitoneal (ip) injected with BNP (2 µg/20 g mice) or saline every 2 days. C57BL/6 mice were sacrificed 1- and 14 days post-MI and Myh6 MerCreMer mice were sacrificed 14 days post-MI (Figure 1A). […]

Series [2] in a line: Infarct size by echocardiography. The class given is in vivo, mouse. The settings on record: two weeks after surgery. The text has this:
To assess for the reproducibility of LAD occlusion, we measured the infarct size by echocardiography analysis (% of the MI length long axis). Two weeks after surgery, the infarct area represented 37 ± 2.5% of the LV in saline injected mice (n = 10) and 31.5 ± 4% in BNP-treated mice (n = 7).

Series [3] deals with neonatal CMs. Nature of the series: Neonatal cardiomyocyte culture treated with BNP. The class given is cell-based, mouse. As to the method:
Neonatal (1–2 days) C57BL/6 pups were sacrificed and CMs were isolated by enzymatic digestion according to the method previously described. Briefly, the chest was opened and the heart removed. After separation of the atria from the rest of the heart, the ventricles were minced and digested with 0.45 mg/mL collagenase (Worthington, Biochemical Corporation, Lakewood, NJ, USA) and 1 mg/mL pancreatin (Sigma). After 3 rounds of digestion, cells were plated 2 times for 45 min in order to separate CMs (non-adherent cells) from the non-myocyte cells (NMCs). Thereafter, CMs were plated on gelatine (0.1%) coated plates and cultured in 3:1 mixture of DMEM and Medium 199 (Invitrogen Corp, San Diego, CA, USA) supplemented with 10% horse serum (Oxoid), 5% fetal bovine serum (Invitrogen), 10 mM Hepes, 100 U/mL penicillin G. To homogenize the experiment, 70,000 CMs were plated per well.
Immediately after plating, neonatal CMs were treated or not with BNP for 14 days. To inhibit NMC proliferation and to work on 95% pure CMs, cells were exposed the first 7 days of culture to cytosine-β-D-arabinofuranoside (AraC, 1 mg/mL). After 7 days of culture, AraC was removed until 14 days of culture. CMs were cultured in a hypoxia chamber (Stem Cell Technologies) flushed with 3% O2/5% CO2/92% N2 (Carbagas). Indeed, we previously observed that low oxygen concentration stimulates CM dedifferentiation and proliferation. Medium was replaced 1–2 times/week.
CMs were treated with 3 different concentrations of BNP: 10 nM, 100 nM and 1000 nM and compared to untreated cells. Quantitative RT-qPCR, Western blot analysis as well as immunohistochemistry studies were performed after 14 days of culture.

For series [4], the system named is Troponin I+ GFP+ cells. The series is described as follows: Flow cytometry count of Troponin I+ GFP+ cells in Myh6 MerCreMer hearts. To be noted: unmanipulated adult Myh6 MerCreMer mice, tamoxifen then BNP, two weeks after first BNP injection, vs saline. The class given is in vivo, mouse. As to the method:
Before surgery and/or BNP treatments, adult Myh6 MerCreMer mice (6-week-old) were injected with Tamoxifen (Sigma, Merck, Darmstadt, Germany, T5648) at 40 mg/kg to activate the Cre recombinase. Tamoxifen was dissolved in ethanol to a concentration of 100 mg/mL and emulsified in peanut oil to a final concentration of 10 mg/mL. A total of 1 mg Tamoxifen/25 g body weight was injected intraperitoneally (i.p) to adult mice one time. Two weeks after tamoxifen injection, 90–95% of pre-existing CMs expressed the GFP protein [11].
as §1
Adult CMs were isolated using enzymatic digestion (see above). […] Cells were analyzed with CytoFLEX (Beckmann Coulter) cytometer and data generated using FlowJo 10 software (10.7.1 version, Becton Dickinson and Compagny, Franklin Lakes, NJ, USA). […] Cells were stained with DAPI and only the DAPI negative cells (living cells) were analyzed.

Setting [5] is: neonatal CMs in vitro, BNP vs untreated.
Where [6] appears, read: neonatal CMs in vitro, BNP vs untreated, 14 days.

No end group written: not given here.

For “Brain Natriuretic Peptide (SQGSTLRVQQRPQNSKVTHISSCFGHKIDRIGSVSRLGCNALKLL; not fully specified; ends and bridges not checked; UniProt P40753 77-121, looked up) [BNP, synthetic mouse BNP (1–45) peptide (Bachem, catalog number H-7558)]”, the “survival of infarcted mice” value in series [1] worked out at 84.2%. The “reduction of infarct size” value in series [2] (BNP vs saline) came to 15%. Besides, the “infarct area as % of the LV (% of the MI length long axis)” value in series [2] (BNP-treated n = 7, saline 37 ± 2.5% (n = 10)) was found to be 31.5 ± 4%. The “increase of number of CMs in culture” value in series [3] (10 nM BNP, 14 days, 3% O2, vs untreated) is on record as 18%. The “number of small and mononucleated CMs” value in series [3] (BNP-treated neonatal CM cultures vs untreated) is on record as “higher number”. Also, in series [3] (setting [5]), the “cyclin A2 mRNA increase” value came to 40%, the “cyclin B2 mRNA increase” value was 30% and the “cyclin D1 mRNA increase” value was 50%. In series [3] (setting [6]), the “increase of percentage of CMs expressing Aurkb” value stood at 50% and the “increase of percentage of CMs expressing Ki67” value is 23%. Besides, the “increase of number of Troponin I+ GFP+ cells” value in series [4] was found to be 28%.
